Like-named read-outs stand apart in the source and are kept apart here.

The text below walks through data of patent US20160128321A1, “Ladder-Frame Polyether Conjugates” (priority 2010, published 2016).

The subject of one series is MCF7. Details: key to the marks not given beside the values.
A further series relates to NL20. More on the design: key to the marks not given beside the values.
A further series relates to MDCK. More on the design: key to the marks not given beside the values.
A further series relates to rat brain synaptosomes. Description: Receptor binding assays.
Setting [1] is: SJCRH30 cells, 400 nM, 1 hour at 37° C., 20× objective, Example 15C.

With `Cc1cc(C)n2c1C=C1C=CC(CCC(=O)NN)=[N+]1[B-]2(F)F` [BODIPY ®, 4,4-difluoro-5,7-dimethyl-4-bora-3a,4a-diaza-s-indacene-3-propionic acid, hydrazide], the level of fluorescence result in the series with CHO-K1 is reported as “−”; in the series with SJCRH30 it was “+”; in the series with HEK293 it was “−”; with 184B5 it was “+”; in the series with MCF7, “++”; with T47D, “+”. Moreover, the level of fluorescence entry was “+” with BT549; “−” in the series with A549; “−” in the series on DMS-114; “++” in the series with NL20; “++” in the series on MDCK.

Consider `COc1cccc2c1C(=O)c1c(O)c3c(c(O)c1C2=O)C[C@@](O)(C(C)=O)C[C@@H]3O[C@H]1C[C@H](N)[C@H](O)[C@H](C)O1` [Daunorubicin], for which the level of fluorescence result with SJCRH30 (setting [1]) is given as “−”.

As to `CN(C)c1ccc2c(-c3cc(C(=O)[O-])ccc3C(=O)O)c3ccc(=[N+](C)C)cc-3oc2c1` [Example 6-TAMRA, 6-carboxytetramethylrhodamine], in the series on SJCRH30 (setting [1]), the level of fluorescence entry is listed as “−”.

For `C=C/C=C\CC[C@H]1O[C@H]2CC[C@@]3(C)O[C@H]4[C@@H](O)C[C@@]5(C)O[C@@H](CC/C=C(C)/C(C)=C/C=O)[C@@H](C)C[C@H]5O[C@@H]4C[C@@H]3O[C@@H]2CC[C@@]1(C)O` [brevenal], the “affinity (binding to rat brain synaptosomes)” value in the series with rat brain synaptosomes (parent compound, first value printed for brevenal) was in the range of 400 to 800 nM.

Consider `C=C(C=O)C[C@@H]1C[C@H](O)[C@]2(C)O[C@@H]3C[C@@H]4O[C@@H]5C[C@]6(C)O[C@]7(C)CC[C@@H]8O[C@@H]9C[C@]%10(C)O[C@@H]%11C(C)=CC(=O)O[C@H]%11C[C@H]%10O[C@H]9C[C@@H](C)[C@H]8O[C@H]7C[C@H]6O[C@H]5C/C=C\[C@H]4O[C@H]3C[C@H]2O1` [brevetoxin], for which the “affinity (binding to rat brain synaptosomes)” value in the series on rat brain synaptosomes is recorded as 2-10 nm.
